The structures appear in SMILES notation.

What is called EC50 is the concentration that produces a half-maximal response. Higher therefore signals a need for much substance.

For the experiment, the species on record is Sus scrofa. Kind of experiment: Vasorelaxation effect in porcine coronary arteries precontracted with PGF2-alpha. The format is functional.

In turn, `COc1ccc(CNc2nnc(Cl)c3ccc(C#N)cc23)cc1Cl` yielded an EC50 of 0.15 µM.

`O=C(O)C1CCN(c2nc(NCc3ccc4c(c3)OCO4)c3cc(Cl)ccc3n2)CC1` had an EC50 of 0.98 µM.

Compound `COc1ccc(CNc2nnc(Cl)c3ccc([N+](=O)[O-])cc23)cc1Cl` registered an EC50 of 0.16 µM. This EC50 is about 6.1-fold lower than that of the compound before.

(Values after ChEMBL document CHEMBL1131629, “4-Benzylamino-1-chloro-6-substituted phthalazines: synthesis and inhibitory activity toward phosphodiesterase 5” (J Med Chem, 1998).)
